Values quoted from earlier work in patent US10940128B2, “Injectable melphalan compositions comprising a cyclodextrin derivative and methods of making and using the same” (CYDEX PHARMACEUTICALS, INC., priority 2009, dated 2021).
Read-outs that look alike come from different tables or passages of the source.

Columns and labels:
certain animal tumors = conditions: in vivo; cited from earlier work
[1] = cited from earlier work; for Mean (±SD) peak melphalan plasma concentrations: myeloma patients; for clearance of melphalan: repeat dosing of 0.5 mg/kg every 6 weeks
plasma proteins = conditions: cited from earlier work
[2] = patients who have received intravenous melphalan; cited from earlier work
[3] = water (pH 7); cited from earlier work

Row | Compound | activity against certain animal tumors compared with melphalan (certain animal tumors) | steady-state volume of distribution ([1]; after intravenous administration of 50 mg of melphalan) [L/kg] | Mean (±SD) peak melphalan plasma concentrations ([1]; 10 mg/m^2 dose) [µg/mL] | Mean (±SD) peak melphalan plasma concentrations ([1]; 20 mg/m^2 dose) [µg/mL] | clearance of melphalan ([1]; after the first course) [mL/min/kg] | clearance of melphalan ([1]; after the third course) [mL/min/kg] | extent of melphalan binding to plasma proteins (plasma proteins) | drug (covalently) irreversibly bound to plasma proteins (plasma proteins; plasma) | share of the plasma protein binding accounted for by α1-acid glycoprotein (plasma proteins; plasma) | hypersensitivity reactions, including anaphylaxis, share of patients [2] | solubility in water [3]
1 | N[C@H](Cc1ccc(N(CCCl)CCCl)cc1)C(=O)O [medphalan] | less active |  |  |  |  |  |  |  |  |  | 
2 | N[C@@H](Cc1ccc(N(CCCl)CCCl)cc1)C(=O)O [melphalan, 4-[bis(chloroethyl)amino]phenylalanine] |  | 0.5 | 1.2 ± 0.4 | 2.8 ± 1.9 | 8.1 | 5.5 | 60% to 90 | Approximately 30% | about 20% | approximately 2% | practically insoluble
